Series [1] concerns MT-MMP. In words: Thiopeptolide assay on cultured trabecular meshwork cells (digitonin-permeabilized). As to conditions: for thiopeptolide assay result versus control CACM: control cells (no Con A), 1 hour preincubation + 24 hours. It counts as cell-based, Rhesus monkey. Here is the method: (§1) The assay of the present invention may be made by first preparing the selected biological sample and assay buffer. To prepare the biological sample, the biological sample such as but not limited to cultured cells were placed in microtiter plates and incubated at approximately 37° C. for up to approximately 96 hours with serum-free, defined medium. A portion of the serum-free, defined medium contained test compounds, while another portion was maintained free of test compounds to serve as controls. In some cases, the biological sample was then processed as a permeabilized “ghost” as described in Example 1 below. The biological sample was then rinsed several times with cold isotonic balanced saline or Tris(hydroxymethyl)aminomethane (TRIS) buffer at pH 7.2 - 7.5. The saline or buffer was then replaced by filter-sterilized, isotonic assay buffer (295 mOsm) consisting of approximately 50 mmol/L N-[2-hydroxyethyl]piperazine-N′-[2-ethane sulfonic acid] (HEPES), approximately 106 mmol/L sodium chloride, approximately 3.5 mmol/L potassium chloride, approximately 5 mmol/L calcium chloride, and approximately 0.02% (v/v) polyoxyethylene 23 lauryl ether (Brij 35) or a similar detergent, final pH approximately 7.5, at approximately room temperature. The Brij 35 was added fresh, and the final mixture was protected from excessive light exposure. The volume of assay buffer for each biological sample was approximately one-half the final assay mixture volume, the other half being made up of the thiopeptolide substrate/thiol reagent solution. For example, when 96-well microtiter plates were employed, the assay mixture volume was approximately 200 microliters.
Next the thiopeptolide substrate/thiol reagent solution was prepared. Preferably, the synthetic thiopeptolide substrate acetyl-prolyl-leucyl-glycyl-[2-mercapto-4-methyl-pentanoyl]-leucyl-glycyl-ethyl ester (Bachem Bioscience, Inc., King of Prussia, Pa.) is used in the solution due to its ready availability. The synthetic thiopeptolide was stored as a 40X, 20 mmol/L stock in DMSO, sealed from light and air, and stored with desiccant at approximately −70° C.. The thiol reagent, 4,4-dithiodipyridine,5,5′-dithio bis(2-nitro-benzoic acid) (DTNB) or the like, but preferably DTNB, was prepared as a 100X, 50 mmol/L stock in DMSO, and stored protected from light with desiccant at approximately room temperature. The combined thiopeptolide and DTNB were both diluted to appropriately 1 mmol/L in assay buffer without Brij 35 to yield a solution that was 2X for both chemicals after thorough mixing. The assay reaction was started when this 2X solution was added in a 1:1 ratio, with thorough mixing, to the assay buffer in which the cells had been equilibrated. The final concentration of both thiopeptolide and DTNB were 0.5 mmol/L.
The assay reaction was then allowed to progress to a suitable endpoint beyond which no further color reaction proceeded, possibly due to product inhibition. This endpoint is usually reached after approximately two hours. During the two hours the samples were gently agitated in an approximately 37° C. humidified incubator. Once the endpoint was reached the microtiter plates were placed into a plate reader and optical density (OD) was measured at 410 nm. Blank values, the OD readings for samples without cells, used to assess non-enzymatic, non-specific hydrolysis of substrate, were then subtracted from all sample OD measurements. The OD measurements taken at 410 nm may be used as a measure of the amount of MT-MMP present on the samples. The effects of experimental conditions on the expression of MT-MMP may then be compared with that of the control samples.
Details of the signal transduction process initiated by Con A culminating in proGelatinase A activation by MT-MMP remained to be elucidated. […]

In series [2] the test system is MT1-MMP. The note with it: HT-1080, in vitro incubation; cited from earlier work.
Series [3] has as its system proGelatinase A. The note with it: cited from earlier work; for activation of Gelatinase A from the proenzyme form (zymography): HT-1080, in vitro incubation.
Series [4] relates to MT1-MMP. In words: Thiopeptolide assay on HT-1080 cells. It counts as cell-based, Human. The source says:
The activation of proGelatinase A was shown in the noted Lohi and Stanton work to be inhibitable by tissue inhibitor of [matrix] metalloproteinases-2 (TIMP-2), and by a synthetic hydroxamate inhibitor of MMP's, but not by metalloproteinases-1 (TIMP-1). As additional evidence that the subject assay detects MT1-MMP in human and non-human primate TM cells, the zymographic results of the Lohi and Stanton work were reproduced using the subject assay, using the same methodology as described herein for TM cells, with […] and […].

The subject of series [5] is MT-MMP. In words: Thiopeptolide assay on excised trabecular meshwork from human anterior segment organ culture. It counts as cell-based. On the procedure:
as §1
Next the thiopeptolide substrate/thiol reagent solution was prepared. Preferably, the synthetic thiopeptolide substrate acetyl-prolyl-leucyl-glycyl-[2-mercapto-4-methyl-pentanoyl]-leucyl-glycyl-ethyl ester (Bachem Bioscience, Inc., King of Prussia, Pa.) is used in the solution due to its ready availability. The synthetic thiopeptolide was stored as a 40X, 20 mmol/L stock in DMSO, sealed from light and air, and stored with desiccant at approximately −70° C.. […]
The assay reaction was then allowed to progress to a suitable endpoint beyond which no further color reaction proceeded, possibly due to product inhibition. […] Once the endpoint was reached the microtiter plates were placed into a plate reader and optical density (OD) was measured at 410 nm. Blank values, the OD readings for samples without cells, used to assess non-enzymatic, non-specific hydrolysis of substrate, were then subtracted from all sample OD measurements. […]

Series [6] relates to proGelatinase A. In words: Zymography of conditioned medium from cultured TM cells. It counts as cell-based.
In series [7] the test system is MT-MMP. The series can be described thus: Thiopeptolide assay on cultured TM cells with protease inhibitors. It counts as cell-based. The text has this: Evidence has been presented by Mazzieri, et al., EMBO Journal 16: 2319-2332 (1997) that the urokinase-plasmin system may be in part responsible for activation of proGelatinase A in some cell systems. It was found in studying the subject thiopeptolide assay that a lesser fraction of the subject thiopeptolide assay activity could be inhibited by serine protease inhibitors, which are ineffective with MMP's. However, when these latter inhibitors were employed with TM cells stimulated by Con A, the percentage increase in thiopeptolide assay activity, compared to control cultures, was in fact augmented due to the Con A treatment.

Where [8] appears, read: Con A-treated cells (10 ug/ml), inhibitor 1 hour preincubation, then Con A plus inhibitor 24 hours, Act D 500 ng/ml, CHX 20 ug/ml.

Numbered stars: 1 amine (or outer) side, 2 acyl side, 3 side chain; on linkers, the order of the positions; unused ones are H or OH. Bridge positions count the residues as written; N and C are the ends. Square brackets hold non-standard residues; d marks the D form. Peptide text beside a SMILES is read from it. I, II: the chains in the order shown. Actinocin(9to1) = Cc1c2oc3c(C)ccc(C(=O)[*:1])c3nc-2c(C(=O)[*:2])c(N)c1=O; NMeV = CN[C@H](C(=O)O)C(C)C; Sar = CNCC(=O)O

The text below walks through data of patent US20020142362A1, “Colorimetric assay system using thiopeptolide substrate for detection of membrane-type matrix metalloproteinase” (priority 2000, published 2002).

With `Cc1c2oc3c(C)ccc(C(=O)N[C@@H]4C(=O)N[C@H](C(C)C)C(=O)N5CCC[C@H]5C(=O)N(C)CC(=O)N(C)[C@@H](C(C)C)C(=O)O[C@@H]4C)c3nc-2c(C(=O)N[C@@H]2C(=O)N[C@H](C(C)C)C(=O)N3CCC[C@H]3C(=O)N(C)CC(=O)N(C)[C@@H](C(C)C)C(=O)O[C@@H]2C)c(N)c1=O` [Act D, actinomycin D] (I: T[dV]P[Sar][NMeV] / II: T[dV]P[Sar][NMeV]; ester I:1-I:C, II:1-II:C; linker I:N-II:N via Actinocin(9to1)), the “MT-MMP activity in thiopeptolide assay versus control CACM” value is “slightly, but discernibly, higher than control” in the series on MT-MMP [1] (Con A for 6 hrs, then Con A plus Act D for 18 hours) and “slightly, but discernibly, higher than control” in the series with MT-MMP [1] (setting [8]). In addition, the “thiopeptolide assay result versus control CACM” value in the series on MT-MMP [1] (Act D 500 ng/ml, CHX 20 ug/ml) is “not significantly different from control CACM alone”.
Turning to `C[C@@H]1C[C@@H]([C@H](O)CC2CC(=O)NC(=O)C2)C(=O)[C@@H](C)C1` [CHX, cycloheximide], the “MT-MMP activity in thiopeptolide assay versus control CACM” value in the series on MT-MMP [1] (setting [8]) is reported as “not significantly different from control CACM alone”. For the same molecule, in the series on MT-MMP [1] (Act D 500 ng/ml, CHX 20 ug/ml), the “thiopeptolide assay result versus control CACM” value is “not significantly different from control CACM alone”.
On to `CCCCCCCCCCCCCC(=O)O[C@@H]1[C@@H](C)[C@@]2(O)[C@@H](C=C(CO)C[C@]3(O)C(=O)C(C)=C[C@@H]23)[C@@H]2C(C)(C)[C@]12OC(C)=O` [PMA, phorbol 12-myristate 13-acetate], for which the “expression of MT1-MMP (Western immunoblot)” value in the series on MT1-MMP [2] is “increase expression”. The “activation of Gelatinase A from the proenzyme form (zymography)” value in the series on proGelatinase A [3] is listed as “activate”. The “activity in thiopeptolide assay following treatment” value in the series with MT1-MMP [4] was “Increased activity”.
As for Concanavalin A [Con A], the “expression of MT1-MMP (Western immunoblot)” value in the series with MT1-MMP [2] is reported as “increase expression”. The “OD readings over control” value in the series on MT-MMP [5] (100 ug/ml Con A) is 200%; with MT-MMP [5] (30 - 80 ug/ml Con A), “approximately 100%”. For the same molecule, in the series on MT-MMP [5] (Con A below 30 ug/ml), the “thiopeptolide assay result versus control medium” value is given as “indistinguishable from simply incubating anterior segment quadrants in control medium”. The “threshold Con A concentration for MT-MMP expression in intact TM” value with MT-MMP [5] (human anterior segment quadrants, 24 + 18 hour incubation) was determined as 30 µg/mL. Further, the “activation of Gelatinase A from the proenzyme form (zymography)” value with proGelatinase A [3] is on record as “activate”. Further, the “activation of proGelatinase A (zymography)” value in the series with proGelatinase A [6] was “robust activation”. Moreover, the “MT-MMP expression over control levels (OD 410 nm, thiopeptolide assay)” value with MT-MMP [1] (Con A 10 ug/ml in CACM, 24 hours, vs control CACM) was “more than 200%”. The “activity in thiopeptolide assay following treatment” value in the series on MT1-MMP [4] is recorded as “Increased activity”.
As for “TIMP-1: metalloproteinases-1 (TIMP-1), tissue inhibitor of metalloproteinases”, the “inhibition of activity increases in thiopeptolide assay” value with MT-MMP [7] is reported as “not”. In addition, the “inhibition of activation of proGelatinase A” value in the series with proGelatinase A [3] (HT-1080, Lohi and Stanton work) is given as “not”.
